{
  "source": "ChEMBL document CHEMBL1201862",
  "about": "“PubChem BioAssay data set” (2004)",
  "key": {"[1]": {"test": "Luminescence Cell-Based Dose Response HTS to Identify Activators of Luciferase Translation or Activity in H4-C Neuroglioblastoma Cells. [Related pubchem assays: 1829 (Project Summary), 1814 (Primary HTS)]", "type": "functional"}, "[2]": {"test": "Luminescence Cell-Based Dose Response to Identify Activators of 5'UTR Stem-Loop Driven Prion Protein mRNA Translation in H4-C Neuroglioblastoma Cells. [Related pubchem assays: 1829 (Project Summary), 1814 (Primary HTS)]", "type": "functional"}, "[3]": {"test": "Luminescence Cell-Based Dose Retest to Confirm Activators of 5'UTR Stem-Loop Driven Alpha-Synuclein mRNA Translation in H4 Neuroglioblastoma Cells. [Related pubchem assays (depositor defined):AID1813, AID1829]", "type": "functional"}, "[4]": {"test": "Luminescence Cell-Based Dose Response HTS to Identify Activators of 5'UTR Stem-Loop Driven Prion Protein mRNA Translation in H4-C Neuroglioblastoma Cells. [Related pubchem assays: 1829 (Project Summary), 1814 (Primary HTS)]", "type": "functional"}, "[5]": {"test": "Luminescence Cell-Based Dose Confirmation HTS to Identify Activators of 5'UTR Stem-Loop Driven Alpha-Synuclein mRNA Translation in H4 Neuroglioblastoma Cells. [Related pubchem assays: 1829 (Project Summary), 1814 (Primary HTS)]", "type": "functional"}, "[6]": {"test": "Luminescence Cell-Based Dose Response HTS to Identify Activators of Luciferase Translation or Activity in H4 […] Cells. [Related pubchem assays: 1829 (Project Summary), 1814 (Primary HTS)]", "type": "functional"}, "[7]": {"test_system": "H4", "test": "Luminescence Cell-Based Dose Response HTS to Identify Activators of 5'UTR Stem-Loop Driven Prion Protein mRNA Translation in H4 Neuroglioblastoma Cells. [Related pubchem assays: 1829 (Project Summary), 1814 (Primary HTS)]", "type": "functional", "settings": "Homo sapiens"}, "[8]": {"test": "Luminescence Cell-Based Dose Response to Identify Activators of Luciferase Translation or Activity in H4-C Neuroglioblastoma Cells. [Related pubchem assays: 1829 (Project Summary), 1814 (Primary HTS)]", "type": "functional"}, "[9]": {"test": "Luminescence Cell-Based Dose Confirmation to Identify Activators of 5'UTR Stem-Loop Driven Alpha-Synuclein mRNA Translation in H4 Neuroglioblastoma Cells. [Related pubchem assays: 1829 (Project Summary), 1814 (Primary HTS)]", "type": "functional"}, "[10]": {"biological_target": "Beta-galactosidase (Escherichia coli, UniProt Q8VNN2)", "sequence (Q8VNN2 whole entry)": "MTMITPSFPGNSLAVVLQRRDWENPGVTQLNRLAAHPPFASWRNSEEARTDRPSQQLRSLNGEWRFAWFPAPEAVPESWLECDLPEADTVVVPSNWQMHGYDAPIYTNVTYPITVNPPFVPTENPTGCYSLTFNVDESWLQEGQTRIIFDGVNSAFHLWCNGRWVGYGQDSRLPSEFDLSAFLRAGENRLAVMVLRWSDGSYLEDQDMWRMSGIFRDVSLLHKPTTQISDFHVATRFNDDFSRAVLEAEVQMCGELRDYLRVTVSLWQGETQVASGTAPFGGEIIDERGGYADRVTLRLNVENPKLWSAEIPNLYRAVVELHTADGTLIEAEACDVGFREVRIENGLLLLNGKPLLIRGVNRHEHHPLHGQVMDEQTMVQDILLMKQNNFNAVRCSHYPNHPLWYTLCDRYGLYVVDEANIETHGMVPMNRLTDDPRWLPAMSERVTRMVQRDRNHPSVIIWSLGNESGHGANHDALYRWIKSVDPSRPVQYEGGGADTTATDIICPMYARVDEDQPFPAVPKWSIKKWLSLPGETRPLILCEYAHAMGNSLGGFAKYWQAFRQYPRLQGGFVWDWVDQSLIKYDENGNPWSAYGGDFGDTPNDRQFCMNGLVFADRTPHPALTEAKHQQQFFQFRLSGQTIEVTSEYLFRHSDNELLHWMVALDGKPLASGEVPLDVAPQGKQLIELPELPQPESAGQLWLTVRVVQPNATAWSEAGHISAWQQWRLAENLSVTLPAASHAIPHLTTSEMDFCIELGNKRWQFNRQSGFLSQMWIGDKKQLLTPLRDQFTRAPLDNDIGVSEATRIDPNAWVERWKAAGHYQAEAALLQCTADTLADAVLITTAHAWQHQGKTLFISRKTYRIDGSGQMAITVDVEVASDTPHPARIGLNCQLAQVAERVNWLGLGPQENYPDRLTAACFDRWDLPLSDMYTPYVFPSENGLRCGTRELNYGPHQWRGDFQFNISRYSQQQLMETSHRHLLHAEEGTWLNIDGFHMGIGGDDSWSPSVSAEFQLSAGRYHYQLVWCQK", "type": "functional"}, "[11]": {"biological_target": "T1, Bcl-2-like protein 10 (Homo sapiens, UniProt Q9HD36)", "T1 sequence (Q9HD36 whole entry)": "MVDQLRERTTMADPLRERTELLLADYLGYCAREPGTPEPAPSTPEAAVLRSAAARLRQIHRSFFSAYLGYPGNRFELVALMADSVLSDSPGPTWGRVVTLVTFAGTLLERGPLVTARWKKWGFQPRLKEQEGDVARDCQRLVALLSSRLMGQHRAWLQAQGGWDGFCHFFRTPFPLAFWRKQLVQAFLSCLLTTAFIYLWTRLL", "test": "Bcl-B/TR3 peptide binding disruption – biochemical, fluorescence polarization, FITC-TR3 peptide, selectivity assay for Bfl-1 inhibitor project, primary screen (AID 748);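 note: fluorescence polarization from a fluorescein-labelled TR3 peptide binding purified Bcl-B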"}, "[12]": {"biological_target": "T2, SUMO-activating enzyme (Homo sapiens, UniProt Q9UBT2)", "T2 sequence (Q9UBE0 whole entry)": "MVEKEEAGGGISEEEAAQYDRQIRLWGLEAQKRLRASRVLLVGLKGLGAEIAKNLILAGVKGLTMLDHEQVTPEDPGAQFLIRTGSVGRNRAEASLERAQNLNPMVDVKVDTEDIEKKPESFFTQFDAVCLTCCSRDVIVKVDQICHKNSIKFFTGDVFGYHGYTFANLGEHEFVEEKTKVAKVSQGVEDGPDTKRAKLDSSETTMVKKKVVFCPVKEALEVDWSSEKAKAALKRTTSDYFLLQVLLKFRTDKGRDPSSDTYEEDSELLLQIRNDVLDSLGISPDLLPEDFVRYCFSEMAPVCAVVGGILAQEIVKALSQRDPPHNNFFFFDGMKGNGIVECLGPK", "T2 sequence (Q9UBT2 whole entry)": "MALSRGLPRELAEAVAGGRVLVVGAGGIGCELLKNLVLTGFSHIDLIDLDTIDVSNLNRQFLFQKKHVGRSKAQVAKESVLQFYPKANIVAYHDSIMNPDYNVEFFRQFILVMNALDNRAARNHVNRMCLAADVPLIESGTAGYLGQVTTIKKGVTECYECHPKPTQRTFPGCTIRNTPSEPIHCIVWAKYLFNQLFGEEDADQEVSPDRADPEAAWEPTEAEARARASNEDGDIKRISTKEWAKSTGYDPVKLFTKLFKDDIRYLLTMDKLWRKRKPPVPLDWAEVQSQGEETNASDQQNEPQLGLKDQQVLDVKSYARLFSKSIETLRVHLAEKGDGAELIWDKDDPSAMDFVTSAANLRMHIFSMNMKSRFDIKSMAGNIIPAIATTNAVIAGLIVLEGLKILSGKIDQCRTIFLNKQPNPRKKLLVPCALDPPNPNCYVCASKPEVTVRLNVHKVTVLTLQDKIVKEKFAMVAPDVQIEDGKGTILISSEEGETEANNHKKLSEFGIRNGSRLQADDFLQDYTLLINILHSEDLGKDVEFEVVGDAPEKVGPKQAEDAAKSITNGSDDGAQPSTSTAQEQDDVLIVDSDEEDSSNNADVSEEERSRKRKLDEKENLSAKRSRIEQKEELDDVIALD", "test": "blockers of UBC9-mediated SUMO conjugation – biochemical, AlphaScreen, SUMOylation inhibitor project, confirmation (AID 2018)", "type": "functional"}, "[13]": {"biological_target": "T2, SUMO-activating enzyme", "test": "blockers of SAE1/SAE2–UBC9 SUMO transfer – biochemical, HTRF, uHTS, primary screen (AID 2006)", "type": "protein-complex assay"}, "[14]": {"biological_target": "Cytochrome P450 3A4 (Homo sapiens, UniProt P08684)", "sequence (P08684 whole entry)": "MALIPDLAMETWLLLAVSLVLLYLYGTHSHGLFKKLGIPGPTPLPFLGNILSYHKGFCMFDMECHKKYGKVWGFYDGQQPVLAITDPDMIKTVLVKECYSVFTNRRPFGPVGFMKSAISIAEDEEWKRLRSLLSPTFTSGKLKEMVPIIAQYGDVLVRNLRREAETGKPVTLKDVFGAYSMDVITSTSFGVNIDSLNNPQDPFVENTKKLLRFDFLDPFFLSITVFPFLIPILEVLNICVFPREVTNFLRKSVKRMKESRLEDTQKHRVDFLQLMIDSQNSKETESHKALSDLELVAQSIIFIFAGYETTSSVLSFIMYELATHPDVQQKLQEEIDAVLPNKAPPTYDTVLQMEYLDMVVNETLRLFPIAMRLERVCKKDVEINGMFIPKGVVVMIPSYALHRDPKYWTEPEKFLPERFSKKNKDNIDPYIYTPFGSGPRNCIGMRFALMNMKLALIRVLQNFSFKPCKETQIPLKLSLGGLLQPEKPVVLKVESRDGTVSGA", "settings": "Potency"}, "[15]": {"biological_target": "Cytochrome P450 2C9 (Homo sapiens, UniProt P11712)", "sequence (P11712 whole entry)": "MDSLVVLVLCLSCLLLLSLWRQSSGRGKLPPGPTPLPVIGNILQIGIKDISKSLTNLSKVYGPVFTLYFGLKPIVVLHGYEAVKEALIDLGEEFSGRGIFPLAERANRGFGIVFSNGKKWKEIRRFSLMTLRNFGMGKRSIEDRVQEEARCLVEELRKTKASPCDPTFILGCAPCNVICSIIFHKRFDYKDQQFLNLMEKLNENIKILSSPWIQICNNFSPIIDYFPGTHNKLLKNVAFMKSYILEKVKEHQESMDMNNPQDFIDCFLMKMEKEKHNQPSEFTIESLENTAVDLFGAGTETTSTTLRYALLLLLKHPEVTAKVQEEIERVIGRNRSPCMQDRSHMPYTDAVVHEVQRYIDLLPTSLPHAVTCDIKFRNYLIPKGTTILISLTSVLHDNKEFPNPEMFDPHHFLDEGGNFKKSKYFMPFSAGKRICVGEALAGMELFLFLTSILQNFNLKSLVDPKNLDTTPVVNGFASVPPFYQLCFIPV", "settings": "Potency"}, "[16]": {"biological_target": "X-box-binding protein 1 (Homo sapiens, UniProt P17861)", "sequence (P17861 whole entry)": "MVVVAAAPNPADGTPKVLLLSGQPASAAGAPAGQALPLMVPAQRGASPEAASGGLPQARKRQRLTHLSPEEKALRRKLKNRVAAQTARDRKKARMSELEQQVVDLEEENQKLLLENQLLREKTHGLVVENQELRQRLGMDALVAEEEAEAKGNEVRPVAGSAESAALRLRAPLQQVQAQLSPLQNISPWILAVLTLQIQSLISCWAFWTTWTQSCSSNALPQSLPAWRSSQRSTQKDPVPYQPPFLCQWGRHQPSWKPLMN", "type": "functional, Cricetulus griseus"}},
  "note": "Active and inactive are the calls of the source.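 Throughout, for Absolute IC50 (XBP1): confirmatory dose-response counter-screen serving a CHOP assay.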",
  "data": [
    {"molecule": "O=C(COC(=O)Cn1cnc2ccccc21)Nc1cc2c(cc1Cl)C(=O)c1ccccc1C2=O", "values": [
      {"measurement": "EC50", "setting": "[1]", "value": "609 nM (active)"},
      {"measurement": "EC50", "setting": "[2]", "value": "> 12 µM (not active)"},
      {"measurement": "EC50", "setting": "[3]", "value": "> 195 µM (inactive)"},
      {"measurement": "EC50", "setting": "[4]", "value": "2.52 µM (active)"},
      {"measurement": "EC50", "setting": "[5]", "value": "< 100 nM (active)"},
      {"measurement": "EC50", "setting": "[6]", "value": "> 120 µM (not active)"},
      {"measurement": "EC50", "setting": "[7]", "value": "40.4 µM (active)"},
      {"measurement": "EC50", "setting": "[8]", "value": "> 12 µM (not active)"},
      {"measurement": "EC50", "setting": "[9]", "value": "1.19 µM (active)"}
    ]},
    {"molecule": "C=C1CC[C@@]2(O)[C@H]3Cc4ccc(O)c5c4[C@@]2(CCN3CC2CC2)[C@H]1O5", "values": [
      {"measurement": "EC50", "setting": "[10]", "value": "> 31.5 µM (inactive)"}
    ]},
    {"molecule": "CN(C)c1ccc(NC(=O)CN2C(=O)CC(c3ccccc3)=Nc3ccccc32)cc1", "values": [
      {"measurement": "IC50", "setting": "[11]", "value": "> 100 µM (inactive)"}
    ]},
    {"molecule": "O=[N+]([O-])c1ccccc1/C=C/C=N/n1c(S)nnc1-c1cc(-c2ccccc2)[nH]n1", "values": [
      {"measurement": "IC50", "setting": "[12]", "value": "10.3 µM (active)"},
      {"measurement": "IC50", "setting": "[13]", "value": "26.8 µM (active)"}
    ]},
    {"molecule": "CC1CCC2C(=O)N3C(CCC(C)[C@H]3c3cccc(N4CCCC4=O)c3)C(=O)N2C1c1cccc(N2CCCC2=O)c1", "note": "(stereo partly drawn)", "values": [
      {"measurement": "AC50", "setting": "[14]", "value": "2.51 µM (inconclusive)"},
      {"measurement": "AC50", "setting": "[15]", "value": "2.51 µM (inconclusive)"}
    ]},
    {"molecule": "N[C@@H](Cc1cc(O)c(O)cc1O)C(=O)O", "values": [
      {"measurement": "AC50", "setting": "[14]", "value": "15.8 µM (inconclusive)"},
      {"measurement": "AC50", "setting": "[15]", "value": "39.8 µM (inconclusive)"}
    ]},
    {"molecule": "COc1ccccc1C(=O)Oc1ccc(C(C)C)cc1", "values": [
      {"measurement": "Absolute IC50 (XBP1)", "setting": "[16]", "value": 10, "unit": "µM"}
    ]}
  ]
}
